Measured values published in paper PMC8750630, “Novel Molecular Targets for Hepatocellular Carcinoma” (Cancers, 2021).

The sequences below were run on CD8+ T cells (assay: pMHC multimer staining of PBMCs for epitope-specific CD8+ T cells). Conditions: HLA-A*02:01 multimers, PBMCs from 4 HCC patients and 3 healthy donors, average.
Format: cell-based, human
Method: pMHC complexes were generated by combining purified disulfide-stabilized HLA A*0201 monomer (100 μg/mL) with 100 μM peptide for 30 min in PBS at room temperature. Then, pMHC complexes were centrifuged for 5 min at 3300× g to sediment any aggregated MHC molecules. For each 100 μL pMHC, 9.02 μL (0.2 mg/mL stock, SA-PE (BioLegend, 405204), SA-APC (BioLegend, 405207), SA-PE/Cy7 (BioLegend, 405206), SA-PE-CF594 (BD, 562284)), or 18.04 μL (0.1 mg/mL stock, SA-BV421 (BioLegend, 405226), SA-BV650 (BioLegend, 405231) streptavidin conjugate was added and incubated for 30 min on ice. D-biotin (Sigma-Aldrich, St.Louis, MO, USA) was added at a final concentration of 25 μM to block any free binding sites and multimers were stored at −20 °C with 5% glycerol and 0.5% BSA. To stain for T-cell reactivity, PBMCs from 4 HCC patients and 3 healthy donors (2–5 × 10^6) were incubated with a pool of pMHC multimers (3 μL/multimer) and dasatinib (50 nM final, LC laboratories, D-3307) for 15 min at 37 °C. Cells were then stained with antibodies CD3-FITC (1:40, BD, 345763) and CD8-BV480 (1:100, BD, 566121) and LIVE/DEAD Fixable Near-IR (1:1000, Invitrogen, Waltham, MA, USA L10119) for 30 min on ice and washed twice in FACS buffer (PBS + 2% FCS). Gating for CD3^+/CD8^+ T cells was performed on live cells, and binding to pMHCs was assessed by measuring specific fluorescence associated with each individual pMHC. Samples were acquired on a flow cytometer (LSRFortessa, BD, Franklin Lakes, NJ, USA).
With ALLALTSAV the “percentage of CD8+ T cells reacting with the peptide” value (shortened to “percentage of CD8+ T cells reacting”) was 0.88%.
With LLGPQLVLL the “percentage of CD8+ T cells reacting” value was 0.55%.
With MLAGNAFTA the “percentage of CD8+ T cells reacting” value was 0.46%.
For MLAGNEFQV, the “percentage of CD8+ T cells reacting” value was 0.32%.
